# According to PubChem BioAssay AID2060506 (Molecular Pharmacology Branch, DTP, NCI, 2025):
# pIC50: −log10 of the molar value.
# System: 598228-144-R-J1-PDC complex spheroid viability
# Test: Anticancer human tumor 598228-144-R-J1-PDC patient-derived serous endometrial adenocarcinoma cell line growth inhibition [GQUAD]
# Details: for pIC50: curve of first compound; for viability, T/C: stronger effect = lower value
# Outline: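 Tumor cells were grown as complex spheroids with HUVEC endothelial cells and mesenchymal stem cells as stroma. G-quadruplex stabilizers were combined with targeted agents over half-log dilutions from near the clinical Cmax, or from 10 microM.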
# [1] = second compound 0.0316 µM, first compound 0.0316 µM
# [2] = second compound 0.0316 µM, first compound 0.1 µM
# [3] = second compound 0.0316 µM, first compound 0.316 µM
# [4] = second compound 0.0316 µM, first compound 1 µM
# [5] = second compound 0.0316 µM, first compound 3.16 µM
# [6] = second compound 0.0316 µM, first compound 10 µM
# [7] = second compound 0.1 µM, first compound 0.0316 µM
# [8] = second compound 0.1 µM, first compound 0.1 µM
# [9] = second compound 0.1 µM, first compound 0.316 µM
# [10] = second compound 0.1 µM, first compound 1 µM
# [11] = second compound 0.1 µM, first compound 3.16 µM
# [12] = second compound 0.1 µM, first compound 10 µM
# [13] = second compound 0.316 µM, first compound 0.0316 µM
# [14] = second compound 0.316 µM, first compound 0.1 µM
# [15] = second compound 0.316 µM, first compound 0.316 µM
# [16] = second compound 0.316 µM, first compound 1 µM
# [17] = second compound 0.316 µM, first compound 3.16 µM
# [18] = second compound 0.316 µM, first compound 10 µM
# [19] = second compound 1 µM, first compound 0.0316 µM
# [20] = second compound 1 µM, first compound 0.1 µM
# [21] = second compound 1 µM, first compound 0.316 µM
# [22] = second compound 1 µM, first compound 1 µM
# [23] = second compound 1 µM, first compound 3.16 µM
# [24] = second compound 1 µM, first compound 10 µM
# [25] = second compound 3.16 µM, first compound 0.0316 µM
# [26] = second compound 3.16 µM, first compound 0.1 µM
# [27] = second compound 3.16 µM, first compound 0.316 µM
# [28] = second compound 3.16 µM, first compound 1 µM
# [29] = second compound 3.16 µM, first compound 3.16 µM
# [30] = second compound 3.16 µM, first compound 10 µM
# [31] = second compound 10 µM, first compound 0.0316 µM
# [32] = second compound 10 µM, first compound 0.1 µM
# [33] = second compound 10 µM, first compound 0.316 µM
# [34] = second compound 10 µM, first compound 1 µM
# [35] = second compound 10 µM, first compound 3.16 µM
# [36] = second compound 10 µM, first compound 10 µM
# 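Note: spheroids exposed to the agents for one week before reading.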
# 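Throughout, for viability, T/C: percent of vehicle DMSO control viability so 100% = untreated growth.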
smiles,measurement,setting,value
C=CCn1c(=O)c2cnc(Nc3ccc(N4CCN(C)CC4)cc3)nc2n1-c1cccc(C(C)(C)O)n1 + Cc1cnc(CNC(=O)c2c(=O)c3ccc(N4CCCN(C)CC4)nc3n3c2sc2ccccc23)cn1,pIC50,second compound 0.0316 µM,5.00
same,pIC50,second compound 0.1 µM,6.35
same,pIC50,second compound 0.316 µM,5.91
same,pIC50,second compound 1 µM,6.18
same,pIC50,second compound 3.16 µM,> 7.50
same,pIC50,second compound 10 µM,> 7.50
same,"viability, T/C",[1],76%
same,"viability, T/C",[2],95%
same,"viability, T/C",[3],61.1%
same,"viability, T/C",[4],44.1%
same,"viability, T/C",[5],45.2%
same,"viability, T/C",[6],61.6%
same,"viability, T/C",[7],82.7%
same,"viability, T/C",[8],74.3%
same,"viability, T/C",[9],51.7%
same,"viability, T/C",[10],45.5%
same,"viability, T/C",[11],43.7%
same,"viability, T/C",[12],38%
same,"viability, T/C",[13],71.4%
same,"viability, T/C",[14],74.5%
same,"viability, T/C",[15],65.9%
same,"viability, T/C",[16],52.5%
same,"viability, T/C",[17],40.6%
same,"viability, T/C",[18],42.6%
same,"viability, T/C",[19],86.5%
same,"viability, T/C",[20],55.4%
same,"viability, T/C",[21],55.3%
same,"viability, T/C",[22],60.3%
same,"viability, T/C",[23],41.6%
same,"viability, T/C",[24],39.8%
same,"viability, T/C",[25],50.8%
same,"viability, T/C",[26],47.6%
same,"viability, T/C",[27],42.3%
same,"viability, T/C",[28],41%
same,"viability, T/C",[29],52.5%
same,"viability, T/C",[30],41.1%
same,"viability, T/C",[31],24.5%
same,"viability, T/C",[32],42.1%
same,"viability, T/C",[33],19.2%
same,"viability, T/C",[34],0.53%
same,"viability, T/C",[35],0.58%
same,"viability, T/C",[36],21.5%
O=c1[nH]cc(F)c(=O)[nH]1 + CN(C)c1ccc(Nc2c3ccc(NC(=O)CCN4CCCC4)cc3nc3cc(NC(=O)CCN4CCCC4)ccc23)cc1,pIC50,second compound 0.0316 µM,< 5.00
same,pIC50,second compound 0.1 µM,< 5.00
same,pIC50,second compound 0.316 µM,< 5.00
same,pIC50,second compound 1 µM,< 5.00
same,pIC50,second compound 3.16 µM,< 5.00
same,pIC50,second compound 10 µM,< 5.00
same,"viability, T/C",[1],121%
same,"viability, T/C",[2],95%
same,"viability, T/C",[3],102%
same,"viability, T/C",[4],91.3%
same,"viability, T/C",[5],89.8%
same,"viability, T/C",[6],90.8%
same,"viability, T/C",[7],104%
same,"viability, T/C",[8],106%
same,"viability, T/C",[9],132%
same,"viability, T/C",[10],100%
same,"viability, T/C",[11],96.8%
same,"viability, T/C",[12],65.5%
same,"viability, T/C",[13],103%
same,"viability, T/C",[14],105%
same,"viability, T/C",[15],104%
same,"viability, T/C",[16],108%
same,"viability, T/C",[17],104%
same,"viability, T/C",[18],97%
same,"viability, T/C",[19],107%
same,"viability, T/C",[20],112%
same,"viability, T/C",[21],106%
same,"viability, T/C",[22],99.1%
same,"viability, T/C",[23],111%
same,"viability, T/C",[24],81.5%
same,"viability, T/C",[25],81%
same,"viability, T/C",[26],113%
same,"viability, T/C",[27],127%
same,"viability, T/C",[28],98.5%
same,"viability, T/C",[29],125%
same,"viability, T/C",[30],61.8%
same,"viability, T/C",[31],82.7%
same,"viability, T/C",[32],71.3%
same,"viability, T/C",[33],95.4%
same,"viability, T/C",[34],88.7%
same,"viability, T/C",[35],88.5%
same,"viability, T/C",[36],64%
Cc1cccc(N(C)C(=O)C2C(O)CCN2c2nc(C)cc(C(F)(F)F)c2C#N)c1 (stereo not drawn) + CN(C)c1ccc(Nc2c3ccc(NC(=O)CCN4CCCC4)cc3nc3cc(NC(=O)CCN4CCCC4)ccc23)cc1,pIC50,second compound 0.0316 µM,< 5.00
same,pIC50,second compound 0.1 µM,< 5.00
same,pIC50,second compound 0.316 µM,< 5.00
same,pIC50,second compound 1 µM,< 5.00
same,pIC50,second compound 3.16 µM,< 5.00
same,pIC50,second compound 10 µM,5.40
same,"viability, T/C",[1],114%
same,"viability, T/C",[2],96.9%
same,"viability, T/C",[3],98.3%
same,"viability, T/C",[4],105%
same,"viability, T/C",[5],91.5%
same,"viability, T/C",[6],103%
same,"viability, T/C",[7],103%
same,"viability, T/C",[8],107%
same,"viability, T/C",[9],107%
same,"viability, T/C",[10],108%
same,"viability, T/C",[11],103%
same,"viability, T/C",[12],84.9%
same,"viability, T/C",[13],94%
same,"viability, T/C",[14],124%
same,"viability, T/C",[15],100%
same,"viability, T/C",[16],125%
same,"viability, T/C",[17],118%
same,"viability, T/C",[18],113%
same,"viability, T/C",[19],98.5%
same,"viability, T/C",[20],114%
same,"viability, T/C",[21],106%
same,"viability, T/C",[22],101%
same,"viability, T/C",[23],106%
same,"viability, T/C",[24],111%
same,"viability, T/C",[25],114%
same,"viability, T/C",[26],106%
same,"viability, T/C",[27],106%
same,"viability, T/C",[28],95.2%
same,"viability, T/C",[29],108%
same,"viability, T/C",[30],86.4%
same,"viability, T/C",[31],96.6%
same,"viability, T/C",[32],78.7%
same,"viability, T/C",[33],107%
same,"viability, T/C",[34],86.5%
same,"viability, T/C",[35],55.2%
same,"viability, T/C",[36],29.1%
COc1ncnc(C2CC2)c1-c1ncc2cnn(Cc3ccc(-c4nc(C(F)(F)F)cn4C(C)C)cc3)c2n1 + Cc1cnc(CNC(=O)c2c(=O)c3ccc(N4CCCN(C)CC4)nc3n3c2sc2ccccc23)cn1,pIC50,second compound 0.0316 µM,< 5.00
same,pIC50,second compound 0.1 µM,< 5.00
same,pIC50,second compound 0.316 µM,< 5.00
same,pIC50,second compound 1 µM,< 5.00
same,pIC50,second compound 3.16 µM,< 5.00
same,pIC50,second compound 10 µM,> 7.50
same,"viability, T/C",[1],81%
same,"viability, T/C",[2],88.8%
same,"viability, T/C",[3],72.9%
same,"viability, T/C",[4],86.8%
same,"viability, T/C",[5],102%
same,"viability, T/C",[6],85.4%
same,"viability, T/C",[7],67.3%
same,"viability, T/C",[8],79.3%
same,"viability, T/C",[9],95.1%
same,"viability, T/C",[10],68.4%
same,"viability, T/C",[11],63.9%
same,"viability, T/C",[12],78.2%
same,"viability, T/C",[13],82.6%
same,"viability, T/C",[14],77.5%
same,"viability, T/C",[15],60.9%
same,"viability, T/C",[16],73.4%
same,"viability, T/C",[17],80.7%
same,"viability, T/C",[18],65.2%
same,"viability, T/C",[19],77.6%
same,"viability, T/C",[20],76.4%
same,"viability, T/C",[21],69.8%
same,"viability, T/C",[22],62.8%
same,"viability, T/C",[23],71.2%
same,"viability, T/C",[24],90%
same,"viability, T/C",[25],62.3%
same,"viability, T/C",[26],65.9%
same,"viability, T/C",[27],60.5%
same,"viability, T/C",[28],53.8%
same,"viability, T/C",[29],57.8%
same,"viability, T/C",[30],65.1%
same,"viability, T/C",[31],38.7%
same,"viability, T/C",[32],24.8%
same,"viability, T/C",[33],31.6%
same,"viability, T/C",[34],24.8%
same,"viability, T/C",[35],34.6%
same,"viability, T/C",[36],23.6%
